From patent publication US10112931B2, “3-pyrimidin-4-yl-oxazolidin-2-ones as inhibitors of mutant IDH” (NOVARTIS AG, priority 2013, dated 2018) come the findings set out here.

What all share (assay type): in vitro ADME
Data set [1] in a line: Metabolic stability in liver microsomes, Method I, rat.
Procedure: The in vitro metabolic stability assay was performed in a 96-well glass plate with shaking incubation at 37° C. A 10 mM DMSO stock solution of the test compound was sequentially diluted 1:1000 to yield a final reaction concentration of 1 μM in 50 mM KPi. […] 30 μL of the 10 μM solution containing the test compound was added to 120 μL of microsomal protein for 150 μL enzyme-compound mixture. The reaction was initiated by adding 150 μL of cofactor solution (2 mM NADPH, 4 mM MgCl in 50 mM KPi) to the enzyme-compound mixture, and the final reaction concentrations are listed in the table below.
At 0, 5, 10 and 30 minute time points in the reaction, reaction aliquots (50 μL) were removed and the reactions were terminated by the addition of acetonitrile (150 μL) containing a mass spectrometry internal standard (1 μM glyburide). The samples were centrifuged and the supernatants analyzed by LC-MS/MS for quantization of remaining compound. […]
Mobile phase A consisted of purified water containing 0.01% formic acid. […] Compounds were detected using the Thermo QuikQuan software which collects intensity data for all fragments related to the molecular weight of the test compound. […]
A short description of data set [2]: Metabolic stability in liver microsomes, Method II, human. The protocol:
Determination of Metabolic Stability in Liver Microsomes—Method II
The in vitro metabolic stability assay was performed in a 96-deep-well plate with incubation at 37° C. 10 mM DMSO stock solution of the test compound was diluted 1:20 in acetonitrile, followed by an additional 1:10 dilution in 100 mM potassium phosphate buffer (KPi) to yield a final reaction concentration of 1 μM. Immediately prior to the start of the experiment, respective animal or human liver microsomes (male Sprague-dawley rat, male CD-1 mouse, or pooled human liver microsomes) were diluted in 100 mM KPi to 1.25 mg/mL liver microsomal protein. 290 μL of cofactor solution (1.7 mM NADPH, 1.7 mM UDPGA, 3.4 mM MgCl in 100 mM KPi) was added to 200 μL of microsomal protein for a final volume of 490 μL. The reaction was initiated by adding 10 μL of the 50 μM test solution to 490 μL of microsomal protein for a final volume 500 μL enzyme-compound mixture.
At 0, 5, 15 and 30 minute time points in the reaction, reaction aliquots (75 μL) were removed and the reactions were terminated by the addition of 50:50 acetonitrile/methanol solution (75 μL) containing a mass spectrometry internal standard (0.5 μM glyburide). The samples were centrifuged at 4000 RPM for 10 minutes. Supernatants (15 μL aliquots) were transferred to a new plate where each well contains 90 μL of deionized water. The supernatants solution were analyzed by UPLC/MS/MS for quantitation of parent remaining compound under multiple reactions monitoring mode (MRM) in positive mode. The percentage of compound remaining, relative to 0 minutes, was used to estimate in vitro elimination-rate constant (k) which was used to calculate in vitro metabolic clearance rates.
Analysis of the samples was performed on an ultra-performance liquid chromatography-tandem mass spectrometry (UPLC/MS/MS) system consisting of an AB Sciex Qtrap 5500 mass spectrometer, AB Sciex Turbo V ion source, Waters Acquity Sample Organizer, Waters Acquity Column manager, Waters Acquity Sample manager, and a Waters Acquity Binary Solvent Manager. Chromatographic separation of analyte and internal standard was achieved using a reverse phase C-18 column (50×2.1 mm, 1.7 μm, Acquity UPLC BEH C-18) with the following UPLC mobile phases and elution gradient: […]
UPLC mobile phase A: 0.25% formic acid in 5% methanol; mobile phase B: 0.25% formic acid in […].
LC gradient and flow rate are listed below: […]
The injection volume was 5 μL. Compounds were detected using Analyst 1.5.1 software which collects intensity data for all fragments related to the molecular weight of the test compound. After collection of the raw data, the software identifies and integrates the peak of the strongest intensity.
Each microsomal elimination rate, k, was based on a 4-point elimination curve tested in duplicates. LC-MS/MS raw data for a reaction plate was returned as integrated analyte peak areas for the test compound and internal standard used in the quench solution for the reaction to enable use of analyte:internal standard peak area ratios (PARs) for all data comparisons. The reaction time point (e.g. 0, 5, 15 and 30 minutes) was plotted versus the natural logarithm of percent test compound remaining relative to 0 minutes (based on relative PAR). The slope of this clearance plot, k, was used to calculate the in vitro half-life.
[formula] The intrinsic clearance value, CLint (expressed as μL/min/mg microsomal protein) calculation is shown below:
[formula] […]

The nature of data set [3]: Metabolic stability in liver microsomes, Method II, mouse.
Procedure: The in vitro metabolic stability assay was performed in a 96-deep-well plate with incubation at 37° C. 10 mM DMSO stock solution of the test compound was diluted 1:20 in acetonitrile, followed by an additional 1:10 dilution in 100 mM potassium phosphate buffer (KPi) to yield a final reaction concentration of 1 μM. […] 290 μL of cofactor solution (1.7 mM NADPH, 1.7 mM UDPGA, 3.4 mM MgCl in 100 mM KPi) was added to 200 μL of microsomal protein for a final volume of 490 μL. The reaction was initiated by adding 10 μL of the 50 μM test solution to 490 μL of microsomal protein for a final volume 500 μL enzyme-compound mixture.
UPLC mobile phase A: 0.25% formic acid in 5% methanol; mobile phase B: 0.25% formic acid in 95% water.
Each microsomal elimination rate, k, was based on a 4-point elimination curve tested in duplicates. LC-MS/MS raw data for a reaction plate was returned as integrated analyte peak areas for the test compound and internal standard used in the quench solution for the reaction to enable use of analyte:internal standard peak area ratios (PARs) for all data comparisons. […]
[formula] The intrinsic clearance value, CLint (expressed as μL/min/mg microsomal protein) calculation is shown below: […]

Structures are written as SMILES. Where a name gives a salt, the structure may show the parent alone. A value given as a limit tells only on which side of the number the result lay.

For `C[C@H](Nc1nccc(N2C(=O)OCC2[C@H](C)F)n1)c1cn(-c2ccc(C(F)F)cc2)cn1` (stereo partly shown) [456 as TFA salt], the “Rat microsomal stability CLint” value in data set [1] worked out at 44.66 µL/min/mg. In data set [2], the “Human microsomal stability CLint” value came out at 16.79 µL/min/mg.

As to `C[C@H](Nc1nccc(N2C(=O)OC[C@@H]2[C@@H](C)N)n1)c1cnc(-c2ccc(Cl)cc2)s1` [Example 380, (S)-4-((R)-1-aminoethyl)-3-(2-(((S)-1-(2-(4-chlorophenyl)thiazol-5-yl)ethyl)amino)pyrimidin-4-yl)oxazolidin-2-one], the “Human microsomal stability CLint” value in data set [2] is 31.15 µL/min/mg. Also, in data set [3], the “Mouse microsomal stability CLint” value amounted to 51.00 µL/min/mg.

For the compound `C[C@H](Nc1nccc(N2C(=O)OC[C@@H]2[C@H](C)F)n1)c1cn(-c2ccc(F)cc2)cn1` [Example 401, (R)-4-((S)-1-fluoroethyl)-3-(2-(((S)-1-(1-(4-fluorophenyl)-1H-imidazol-4-yl)ethyl)amino)pyrimidin-4-yl)oxazolidin-2-one], the “Human microsomal stability CLint” value in data set [2] is below 7.70 µL/min/mg. In addition, the “Mouse microsomal stability CLint” value in data set [3] is 33.13 µL/min/mg.

In the case of `C[C@H](Nc1nccc(N2C(=O)OC[C@@H]2CF)n1)c1cn(-c2ccc(Cl)cc2)cn1` [Example 404, (R)-3-(2-(((S)-1-(1-(4-chlorophenyl)-1H-imidazol-4-yl)ethyl)amino)pyrimidin-4-yl)-4-(fluoromethyl)oxazolidin-2-one], the “Human microsomal stability CLint” value in data set [2] was below 7.70 µL/min/mg. Moreover, the “Mouse microsomal stability CLint” value in data set [3] stood at 18.72 µL/min/mg.

As to `C[C@H](Nc1nccc(N2C(=O)OC[C@@H]2[C@H](C)F)n1)c1ncc(-c2ccnc(C(F)(F)F)c2)cc1F` [Example 463, (R)-3-(2-(((S)-1-(5-fluoro-2′-(trifluoromethyl)-[3,4′-bipyridin]-6-yl)ethyl)amino)pyrimidin-4-yl)-4-((S)-1-fluoroethyl)oxazolidin-2-one], the “Human microsomal stability CLint” value in data set [2] stood at 28.27 µL/min/mg. In data set [3], the “Mouse microsomal stability CLint” value worked out at 35.45 µL/min/mg.
